≈ marks a conversion by molar mass, not a printed value.

The subject of one assay is U937 human monocytes. Put plainly: Histamine release assay (EIA kit) in PMA-treated U937 cells. It is filed as cell-based. The following applies: U-937, 20 nM Phorbol Myristate Acetate, 1 h, triplicate, read-out: Histamine release inhibition IC50. As for the experimental part:
In accordance with literature, extracts or standard diclofenac (7.81–1000 μg/mL) were added to U937 cells seeded in a 96-well plate in a concentration of 50,000 in presence or absence of 20 nM Phorbol Myristate Acetate. After 1 h, the treated and untreated cell cultures supernatants were collected and centrifuged at 10,000 rpm for 5 min at 4 °C. Then the samples were evaluated for released histamine by a commercially available EIA kit (SPI-Bio, Montigny le Bretonneux, France).

The subject of another assay is red blood cells (RBCs). In words: Membrane stabilizing activity, hypotonic solution-induced hemolysis of RBCs. In kind it is cell-based, rats. The following applies: Erythrocyte, 10 min; rat RBCs, hypotonic solution pH 7.4, 10 min; triplicate; read-out: Membrane stabilization IC50 (inhibition of RBCs hemolysis). The protocol:
The method was conducted according to the literature. Erythrocyte suspension was prepared by withdrawing blood samples from rats with heparinized syringes through cardiac puncture. Then, phosphate buffer was used to wash blood samples three times with centrifugation after each washing at 3000 rpm for 10 min. […] Control samples were prepared by similar manner without extracts or indomethacin. Afterward, previous mixtures were withstanding for 10 min in room condition and subjected to 10 min centrifugation at 3000 rpm.

Assay [1] concerns hepatocarcinoma (HepG-2) cell line. In words: cells. The following applies: Homo sapiens, HepG2, read-out: Cytotoxicity IC50.
Description: (§1) All cells were obtained from the American Type Culture Collection (ATCC, Rockville, MD, USA) and were cultured on RPMI 1640 medium supplemented with 10% inactivated fetal calf serum and 50 μg/mL gentamycin. The cells were maintained at 37 °C in a humidified atmosphere with 5% CO2 and were sub cultured two to three times a week. Cell viability percentage was calculated by the equation: Cell viability % = Ac/At × 100(5) where Ac = Absorbance obtained from of control cells, At = Absorbance obtained from treated cells.
For assay [2], the system named is breast carcinoma (MCF-7) cell line. In words: cells. The note with it: Homo sapiens, MCF7, read-out: Cytotoxicity IC50.
Description: as §1
In assay [3] the test system is prostate carcinoma (PC-3) cell line. In words: cells. The note with it: Homo sapiens, PC-3, read-out: Cytotoxicity IC50.
Description: as §1

The term IC50 denotes the concentration that inhibits the measured activity by half. With `O=C(O)Cc1ccccc1Nc1c(Cl)cccc1Cl` [Diclofenac], the IC50 in the assay with U937 human monocytes was 17.9 ± 1.6 µg/mL (≈ 60.6 µM).
Regarding `COc1ccc2c(c1)c(CC(=O)O)c(C)n2C(=O)c1ccc(Cl)cc1` [Indomethacin], the half-maximal inhibitory concentration (IC50) with red blood cells (RBCs) was 17 ± 0.72 µg/mL (≈ 47.6 µM).
As to `CC[C@]1(O)C[C@@H]2CN(CCc3c([nH]c4ccccc34)[C@@](C(=O)OC)(c3cc4c(cc3OC)N(C)[C@H]3[C@@](O)(C(=O)OC)[C@H](OC(C)=O)[C@]5(CC)C=CCN6CC[C@]43[C@@H]65)C2)C1` [Vinblastine], the figures for the half-inhibitory concentration (IC50) in assay [1], in assay [2] and in assay [3] were 4.6 ± 0.17 µg/mL (≈ 5.67 µM), 4.6 ± 0.18 µg/mL (≈ 5.67 µM) and 5.5 ± 0.4 µg/mL (≈ 6.78 µM), respectively.

The values above are taken from PMC7796184, “Phytochemical Characterization, In Vitro Anti-Inflammatory, Anti-Diabetic, and Cytotoxic Activities of the Edible Aromatic Plant; Pulicaria jaubertii” (Molecules, 2021).
